The results in this text go back to patent US20110275643A1, “AROYLQUINOLINE COMPOUNDS” (NATIONAL HEALTH RESEARCH INSTITUTES, priority 2010, published 2011).

The subject of series [1] is oral epidermoid carcinoma KB cells. The series is described as follows: In vitro cell growth inhibition, methylene blue dye assay, KB cells. The class given is cell-based, Human. Here is the method:
(§1) Human oral epidermoid carcinoma KB cells, non-small-cell lung carcinoma H460 cells, colorectal carcinoma HT29 cells and stomach carcinoma MKN45 cells were maintained in RMPI-1640 medium supplied with 5% fetal bovine serum (FBS). […] Cells in logarithmic phase were cultured at a density of 5000 cells/mL/well in a 24-well plate. KB-VIN10 cells were cultured in drug-free medium for 3 days prior to use. The cells were exposed to various concentrations of the test drugs for 72 hours. The methylene blue dye assay was used to evaluate the effect of the test compounds on cell growth (Finlay et al., 1984).

For series [2], the system named is colorectal carcinoma HT29 cells. In words: In vitro cell growth inhibition, methylene blue dye assay, HT29 cells. The class given is cell-based, Human. The note with it: read-out: IC50 on the proliferation of cells, HT29. How it is done: as §1
A further series relates to MAP-rich tubulin. In words: Tubulin polymerization in vitro assay (turbidimetric). It counts as biochemical, bovine. As to conditions: 37° C., 30 minutes, read-out: Inhibition of tubulin polymerization IC50 ± SD. Here is the method:
Turbidimetric assays (Liou et al., 2004; Kuo et al., 2004) of microtubules were performed as described by Bollag et al. 1995. In brief, microtubule-associated protein (MAP)-rich tubulin (from bovine brain, Cytoskeleton, Denver, Col.) has been dissolved in reaction buffer (100 mM PIPES (1,4-piperazinediethanesulfulfonic acid, pH 6.9), 2 mM magnesium chloride (MgCl2), 1 mM GTP (guanosine triphosphate)) in preparing of 4 mg/mL tubulin solution. Tubulin solution (240 μg MAP-rich tubulin per well) was placed in 96-well microtiter plate in the presence of test compounds or 2% (v/v) DMSO (dimethyl sulfoxide) as vehicle control. The increase in absorbance was measured at 350 nm in a PowerWave X Microplate Reader (Bio-Tek Instruments, Winooski, Vt.) at 37° C. and recorded every 30 seconds for 30 minutes.

For series [3], the system named is non-small-cell lung carcinoma H460 cells. The series is described as follows: In vitro cell growth inhibition, methylene blue dye assay, H460 cells. It counts as cell-based, Human. As to conditions: read-out: IC50 on the proliferation of cells, H460. How it is done:
as §1

Series [4] concerns KB-VIN10 cells (overexpression of P-gp170/MDR). In words: In vitro cell growth inhibition, methylene blue dye assay, MDR-positive KB-VIN10 cells. The class given is cell-based, Human. The note with it: read-out: IC50 on the proliferation of cells, KB-VIN10. How it is done: as §1
In series [5] the test system is stomach carcinoma MKN45 cells. The series is described as follows: In vitro cell growth inhibition, methylene blue dye assay, MKN45 cells. The note with it: read-out: IC50 on the proliferation of cells, MKN45. The class given is cell-based, Human. Here is the method: as §1
Series [6] has as its system colchicine-binding site of tubulin. In words: Tubulin competition-binding scintillation proximity assay ([3H]colchicine). As to conditions: for Inhibition of [3H]colchicine binding (% ± SD), 1 μM inhibitor / Inhibition of [3H]colchicine binding (% ± SD), 5 μM inhibitor: Tubulin at 1 μM, [3H]colchicine at 5 μM. Here is the method:
This assay was performed as described by Tahir et al., 2003. […] Then 80 μg of Streptavidin-labeled SPA (scintillation proximity assay) beads were added to each reaction mixture. Then the radioactive counts were directly measured by a scintillation counter.

Series [7] concerns five cancer cell lines (KB, H460, HT29, MKN45, KB-VIN10). The series is described as follows: Antiproliferative activity, mean over five cancer cell lines. It counts as cell-based, Human. As to conditions: for IC50: Homo sapiens, read-out: mean IC50 value against five cancer cell lines. How it is done:
The synthesized compounds 5 to 17 were evaluated for antiproliferative activities against four carcinoma cells, oral epidermoid carcinoma KB cells, non-small-cell lung carcinoma H460 cells, colorectal carcinoma HT29 cells and stomach carcinoma MKN45 cells, as well as the MDR-positive cell lines KB-VIN10, that overexpressed P-gp 170/MDR (Table 1). The controls were compounds 1 and 3.
as §1

Setting [8] is: mean of KB, H460, HT29, MKN45, KB-VIN10.
The mark [9] stands for this setting: Homo sapiens, KB cells, 72 hours, mean ± SD, read-out: IC50 on the proliferation of cells, KB.
Where [10] appears, read: Homo sapiens, HT-29, HT29 cells, 72 hours, mean ± SD.
The mark [11] stands for this setting: Homo sapiens, NCI-H460, H460 cells, 72 hours, mean ± SD.
Setting [12] is: Homo sapiens, KB-VIN10 cells, 72 hours, mean ± SD.
[13] abbreviates: Homo sapiens, MKN-45, MKN45 cells, 72 hours, mean ± SD.
Setting [14] is: Homo sapiens, KB, 72 h, read-out: IC50 on the proliferation of cells, KB.

Where two headings read alike, the source gives them in different places. Where only a bound is given, the exact number is not on record here.

On to `COc1ccc(/C=C\c2cc(OC)c(OC)c(OC)c2)cc1O` [Compound 1, combretastatin A-4, reference compound], for which the IC50 in series [1] (KB cells, 72 hours, mean ± SD, read-out: IC50 on the proliferation of cells, KB) was determined as 2.4 ± 0.2 nM; in series [2] (HT29 cells, 72 hours, mean ± SD), 835 ± 54 nM; with MAP-rich tubulin, […]; in series [3] (H460 cells, 72 hours, mean ± SD) it was 2.6 ± 0.3 nM; in [4] (KB-VIN10 cells, 72 hours, mean ± SD) it was 1.9 ± 0.4 nM; in series [5] (MKN45 cells, 72 hours, mean ± SD), 4.9 ± 0.2 nM. The “Inhibition of [3H]colchicine binding (% ± SD), 1 μM inhibitor” value (shortened to “Inhibition … (% ± SD), 1 μM inhibitor”) in series [6] is listed as 87 ± 1%. The “Inhibition of [3H]colchicine binding (% ± SD), 5 μM inhibitor” value (from here on “Inhibition … (% ± SD), 5 μM inhibitor”) in series [6] was 95 ± 2%.
`COc1cc(C(=O)c2ccc3ccccc3n2)cc(OC)c1OC` [Compound 5, 2-(3′,4′,5′-trimethoxybenzoyl)quinoline]: the melting point – broadly, the temperature, or range, at which the solid turns liquid – was in the range of 158 to 159 °C. Further, the IC50 in [7] (setting [8]) is 173 nM. The IC50 in series [1] (setting [9]) amounted to 174 ± 33.1 nM. Besides, the IC50 in series [2] (setting [10]) turned out to be 148 ± 17 nM. Also, the IC50 with MAP-rich tubulin was over 10000 nM. Moreover, the IC50 in [3] (setting [11]) turned out to be 180 ± 25.5 nM. In addition, the IC50 in [4] (setting [12]) came out at 117 ± 23.7 nM. Besides, in series [5] (setting [13]), the IC50 stood at 246 ± 32.7 nM.
On to `COc1cc(C(=O)c2ccc3ncccc3c2)cc(OC)c1OC` [Compound 9, 6-(3′,4′,5′-trimethoxybenzoyl)quinoline], for which the melting point fell in the range of 132 to 134 °C. Further, the IC50 in series [7] (setting [8]) is 24.4 nM. Also, the IC50 in series [1] (setting [9]) came out at 24 ± 6.1 nM. The IC50 in series [2] (setting [10]) came to 24.6 ± 3 nM. Besides, the IC50 in the series with MAP-rich tubulin is 2900 nM. In addition, in [3] (setting [11]), the IC50 is 36 ± 5.5 nM. In addition, in series [4] (setting [12]), the IC50 is 21.5 ± 7.7 nM. Also, in series [5] (setting [13]), the IC50 came to 16.3 ± 4.5 nM. In series [6], the “Inhibition … (% ± SD), 1 μM inhibitor” value is given as 51 ± 3% and the “Inhibition … (% ± SD), 5 μM inhibitor” value came to 72 ± 3%.
Turning to `COc1ccc2nc(C(=O)c3cc(OC)c(OC)c(OC)c3)ccc2c1` [Compound 12, 6-methoxy-2-(3′,4′,5′-trimethoxybenzoyl)quinoline], the melting point was in the range of 143 to 145 °C. Moreover, the IC50 in series [7] came out at 67 nM. Moreover, the IC50 in series [1] (setting [14]) is 27.2 ± 9.8 nM. Moreover, in series [2] (Homo sapiens, HT-29, 72 h), the IC50 amounted to 77 ± 5.7 nM. Moreover, the IC50 in the series with MAP-rich tubulin is 3500 nM. For the same compound, in series [3] (Homo sapiens, NCI-H460, 72 h), the IC50 is 61.5 ± 20.5 nM. Besides, in series [4] (Homo sapiens, KB-VIN10, 72 h), the IC50 was 21.5 ± 0.6 nM. In addition, the IC50 in [5] (Homo sapiens, MKN-45, 72 h) was found to be 150 ± 31.2 nM. In [6], the “Inhibition … (% ± SD), 1 μM inhibitor” value was determined as 40 ± 3% and the “Inhibition … (% ± SD), 5 μM inhibitor” value worked out at 68 ± 2%.
`COc1cc(C(=O)c2ccnc3c(OC)cccc23)cc(OC)c1OC` [Compound 13, 8-methoxy-4-(3′,4′,5′-trimethoxybenzoyl)quinoline] returned a melting point of 162.5 to 164.1 °C. Further, in series [7], the “cytotoxicity / antiproliferative activity in words” value is “over an order of magnitude increase in activity over the parental compound 7”. For the same compound, the IC50 in series [7] (setting [8]) stood at 164 nM. Moreover, in series [1] (setting [9]), the IC50 was found to be 155 ± 15.1 nM. Besides, in series [2] (setting [10]), the IC50 was 162 ± 28.7 nM. For the same compound, in [3] (setting [11]), the IC50 worked out at 193 ± 35.3 nM. The IC50 in series [4] (setting [12]) was 165 ± 33 nM. Further, the IC50 in series [5] (setting [13]) was 147 ± 25.4 nM.
With `COc1ccc2cc(C(=O)c3cc(OC)c(OC)c(OC)c3)ccc2n1` [Compound 14, 2-methoxy-6-(3′,4′,5′-trimethoxybenzoyl)quinoline], the melting point is 182 to 183 °C. Moreover, in [7] (setting [8]), the IC50 came out at 220 nM. Moreover, the IC50 in series [1] (setting [9]) was 301 ± 64.4 nM. The IC50 in series [2] (setting [10]) came out at 206 ± 4.9 nM. Moreover, the IC50 in the series with MAP-rich tubulin is over 10000 nM. Also, the IC50 in series [3] (setting [11]) amounted to 256 ± 34.6 nM. Also, the IC50 in [4] (setting [12]) came out at 202 ± 26.2 nM. In [5] (setting [13]), the IC50 was 138 ± 54.4 nM.
`COc1cc(C(=O)c2ccc3c(N)c(OC)ccc3n2)cc(OC)c1OC` [Compound 15, 5-amino-6-methoxy-2-(3′,4′,5′-trimethoxybenzoyl)quinoline] displayed a melting point of 184.3 to 185.2 °C. Also, the IC50 in [7] was determined as 0.32 nM. The “fold improvement in the IC50 value over compound 12” value in series [7] (versus compound 12) is recorded as over 100 fold. Further, the IC50 in series [1] (setting [14]) came out at 0.3 ± 0.1 nM. In addition, the IC50 in series [1] (Homo sapiens, KB, read-out: 50% Inhibition concentration (IC50) on the proliferation of KB cells line) worked out at 0.31 nM. Further, the IC50 in [2] (Homo sapiens, HT-29, 72 h) stood at 0.4 ± 0.2 nM. Moreover, the IC50 in the series on MAP-rich tubulin came to 1600 nM. For the same compound, the IC50 in series [3] (Homo sapiens, NCI-H460, 72 h) is 0.4 ± 0.3 nM. In addition, the IC50 in series [4] (Homo sapiens, KB-VIN10, 72 h) turned out to be 0.2 ± 0.1 nM. Also, the IC50 in series [5] (Homo sapiens, MKN-45, 72 h) amounted to 0.3 ± 0.2 nM. For the same compound, in [6], the “Inhibition … (% ± SD), 1 μM inhibitor” value was 90 ± 0.5% and the “Inhibition … (% ± SD), 5 μM inhibitor” value is on record as 97 ± 1%. Besides, the “binding to the colchicine-binding domain in words” value in [6] ([3H]-colchicine binding assay) was “strongly bound to the colchicine-binding domain”.
`COc1cc(C(=O)c2ccc3c(ccc[n+]3[O-])c2)cc(OC)c1OC` [Compound 16, 6-(3′,4′,5′-trimethoxybenzoyl)quinoline N-oxide] had a melting point of 175 to 176 °C. Moreover, the “fold reduction of activity compared with compound 9” value in [7] (versus compound 9) is recorded as over 10 fold. The IC50 in [1] (setting [9]) was 830 ± 172 nM. Besides, the IC50 in series [2] (setting [10]) worked out at 872 ± 86.2 nM. The IC50 in series [3] (setting [11]) worked out at 1100 ± 150 nM. Further, in series [4] (setting [12]), the IC50 worked out at 764 ± 111 nM. Moreover, the IC50 in [5] (setting [13]) was 617 ± 85 nM.
In turn, `COc1cc(C(=O)c2ccc3c(ccc[n+]3C)c2)cc(OC)c1OC.[I-]` [Compound 17, 6-(3′,4′,5′-trimethoxybenzoyl)-1-methylquinolinium iodide] returned a melting point of 187 to 188 °C. Further, the “cytotoxicity / antiproliferative activity in words” value in series [7] (five cancer cell lines) was “drastic loss of activity”. Besides, the IC50 in [1] (setting [9]) is over 10000 nM. Further, in series [2] (setting [10]), the IC50 was over 10000 nM. Besides, the IC50 in [3] (setting [11]) was over 10000 nM. The IC50 in series [4] (setting [12]) was over 10000 nM. Moreover, in series [5] (setting [13]), the IC50 was over 10000 nM.
